≈ marks a conversion by molar mass, not a printed value.

The first test deals with Escherichia coli. Kind of test: Intrinsic binding affinity to Escherichia coli ribosmes by TnT assay. The test is classed as functional.
In the case of `CC(=O)NC[C@H]1CN(c2cc(F)c(N3CCC(C)(O)CC3)c(F)c2)C(=O)O1`, the IC50 is 2100 nM.
`CC(=O)NC[C@H]1CN(c2cc(F)c(N3CCC(CC#N)CC3)c(F)c2)C(=O)O1` had a concentration for half-maximal inhibition (IC50) of 1600 nM.
On the same count and under the same terms, under `CC(=O)NC[C@H]1CN(c2cc(F)c(N3CC(O)(C(F)(F)F)C3)c(F)c2)C(=O)O1` stands 2400 nM; under `COC1(C)CN(c2c(F)cc(N3C[C@H](CNC(C)=O)OC3=O)cc2F)C1`, 3700 nM; under `CCC1(O)CN(c2c(F)cc(N3C[C@H](CNC(C)=O)OC3=O)cc2F)C1`, 2700 nM.
For `CC(=O)NC[C@H]1CN(c2cc(F)c(N3CCC(O)CC3)c(F)c2)C(=O)O1`, the 50% inhibitory concentration (IC50) worked out at 1700 nM.
On the same count and under the same terms, to `CC(=O)NC[C@H]1CN(c2cc(F)c(N3CC(F)C3)c(F)c2)C(=O)O1` belongs 1400 nM; to `CCC1(O)CCN(c2c(F)cc(N3C[C@H](CNC(C)=O)OC3=O)cc2F)CC1`, 2100 nM; to `COC1CN(c2c(F)cc(N3C[C@H](CNC(C)=O)OC3=O)cc2F)C1`, 2600 nM.
Compound `CC(=O)NC[C@H]1CN(c2cc(F)c(N3CC(C)(F)C3)c(F)c2)C(=O)O1` yielded an IC50 of 2300 nM.
Still for that read-out and setting: under `CC(=O)NC[C@H]1CN(c2cc(F)c(N3CC(C)(O)C3)c(F)c2)C(=O)O1` stands 3400 nM; under `CC(=O)NC[C@H]1CN(c2cc(F)c(N3CC(O)C3)c(F)c2)C(=O)O1`, 1900 nM.

For another test, the system named is Staphylococcus aureus. Kind of test: Antibacterial activity against Staphylococcus aureus by broth microdilution method. The test is classed as functional. In general terms: Dilution methods test growth across graded concentrations, often in twofold steps.
With `CC(=O)NC[C@H]1CN(c2cc(F)c(N3CCC(C)(O)CC3)c(F)c2)C(=O)O1`, the MIC90 came to 4 µg/mL (≈ 10.4 µM).
As for `CC(=O)NC[C@H]1CN(c2cc(F)c(N3CCC(CC#N)CC3)c(F)c2)C(=O)O1`, the MIC90 stood at 2 µg/mL (≈ 5.1 µM).
The same measure, in the same setting: under `CC(=O)NC[C@H]1CN(c2cc(F)c(N3CC(O)(C(F)(F)F)C3)c(F)c2)C(=O)O1` stands 4 µg/mL (≈ 9.77 µM); under `COC1(C)CN(c2c(F)cc(N3C[C@H](CNC(C)=O)OC3=O)cc2F)C1`, 4 µg/mL (≈ 10.8 µM).
The compound `CCC1(O)CN(c2c(F)cc(N3C[C@H](CNC(C)=O)OC3=O)cc2F)C1` yielded an MIC90 of 4 µg/mL (≈ 10.8 µM).
As to `CC(=O)NC[C@H]1CN(c2cc(F)c(N3CCC(C)(CC#N)CC3)c(F)c2)C(=O)O1`, the MIC90 was 2 µg/mL (≈ 4.92 µM).
On the same count and under the same terms, to `CC(=O)NC[C@H]1CN(c2cc(F)c(N3CCC(O)CC3)c(F)c2)C(=O)O1` belongs 2 µg/mL (≈ 5.41 µM).
Same read-out and setting: under `CC(=O)NC[C@H]1CN(c2cc(F)c(N3CC(F)C3)c(F)c2)C(=O)O1` stands 2 µg/mL (≈ 5.83 µM).
On the same count and under the same terms, to `CCC1(O)CCN(c2c(F)cc(N3C[C@H](CNC(C)=O)OC3=O)cc2F)CC1` belongs 4 µg/mL (≈ 10.1 µM); to `CC(=O)NC[C@H]1CN(c2ccc(N3CCOCC3)c(F)c2)C(=O)O1` [LINEZOLID], 4 µg/mL (≈ 11.9 µM).
The compound `COC1CN(c2c(F)cc(N3C[C@H](CNC(C)=O)OC3=O)cc2F)C1` gave an MIC90 of 2 µg/mL (≈ 5.63 µM).
`CC(=O)NC[C@H]1CN(c2cc(F)c(N3CC(C)(F)C3)c(F)c2)C(=O)O1` showed an MIC90 of 4 µg/mL (≈ 11.2 µM).
Regarding `CC(=O)NC[C@H]1CN(c2cc(F)c(N3CC(C)(O)C3)c(F)c2)C(=O)O1`, the MIC90 was determined as 4 µg/mL (≈ 11.3 µM).
In turn, `CC(=O)NC[C@H]1CN(c2cc(F)c(N3CC(O)C3)c(F)c2)C(=O)O1` showed an MIC90 of 2 µg/mL (≈ 5.86 µM).

In a further test the test system is Streptococcus pneumoniae. The test is described as follows: Antibacterial activity against Streptococcus pneumoniae by broth microdilution method. Type of test: functional.
In turn, `CC(=O)NC[C@H]1CN(c2cc(F)c(N3CCC(C)(O)CC3)c(F)c2)C(=O)O1` came in with an MIC90 of 1 µg/mL (≈ 2.61 µM).
`CC(=O)NC[C@H]1CN(c2cc(F)c(N3CCC(CC#N)CC3)c(F)c2)C(=O)O1`: the MIC90 came to 1 µg/mL (≈ 2.55 µM).
On the same count and under the same terms, under `CC(=O)NC[C@H]1CN(c2cc(F)c(N3CC(O)(C(F)(F)F)C3)c(F)c2)C(=O)O1` stands 2 µg/mL (≈ 4.89 µM).
On the same count and under the same terms, to `COC1(C)CN(c2c(F)cc(N3C[C@H](CNC(C)=O)OC3=O)cc2F)C1` belongs 1 µg/mL (≈ 2.71 µM); to `CCC1(O)CN(c2c(F)cc(N3C[C@H](CNC(C)=O)OC3=O)cc2F)C1`, 2 µg/mL (≈ 5.41 µM).
Still for that read-out and setting: under `CC(=O)NC[C@H]1CN(c2cc(F)c(N3CCC(C)(CC#N)CC3)c(F)c2)C(=O)O1` stands 1 µg/mL (≈ 2.46 µM).
As for `CC(=O)NC[C@H]1CN(c2cc(F)c(N3CCC(O)CC3)c(F)c2)C(=O)O1`, the MIC90 stood at 1 µg/mL (≈ 2.71 µM).
Same read-out and setting: to `CC(=O)NC[C@H]1CN(c2cc(F)c(N3CC(F)C3)c(F)c2)C(=O)O1` belongs 1 µg/mL (≈ 2.91 µM).
Same read-out and setting: under `CCC1(O)CCN(c2c(F)cc(N3C[C@H](CNC(C)=O)OC3=O)cc2F)CC1` stands 1 µg/mL (≈ 2.52 µM); under `CC(=O)NC[C@H]1CN(c2ccc(N3CCOCC3)c(F)c2)C(=O)O1` [LINEZOLID], 1 µg/mL (≈ 2.96 µM).
The same measure, in the same setting: under `COC1CN(c2c(F)cc(N3C[C@H](CNC(C)=O)OC3=O)cc2F)C1` stands 1 µg/mL (≈ 2.81 µM).
In turn, `CC(=O)NC[C@H]1CN(c2cc(F)c(N3CC(C)(F)C3)c(F)c2)C(=O)O1` came in with an MIC90 of 1 µg/mL (≈ 2.8 µM).
`CC(=O)NC[C@H]1CN(c2cc(F)c(N3CC(C)(O)C3)c(F)c2)C(=O)O1` had an MIC90 of 1 µg/mL (≈ 2.81 µM).
`CC(=O)NC[C@H]1CN(c2cc(F)c(N3CC(O)C3)c(F)c2)C(=O)O1` gave an MIC90 of 1 µg/mL (≈ 2.93 µM).

The test system of another test is Enterococcus faecalis. The test is described as follows: Antibacterial activity against Enterococcus faecalis by broth microdilution method. The test is classed as functional.
In the case of `CC(=O)NC[C@H]1CN(c2cc(F)c(N3CCC(C)(O)CC3)c(F)c2)C(=O)O1`, the MIC90 came out at 2 µg/mL (≈ 5.22 µM).
Same read-out and setting: under `CC(=O)NC[C@H]1CN(c2cc(F)c(N3CCC(CC#N)CC3)c(F)c2)C(=O)O1` stands 1 µg/mL (≈ 2.55 µM).
In turn, `CC(=O)NC[C@H]1CN(c2cc(F)c(N3CC(O)(C(F)(F)F)C3)c(F)c2)C(=O)O1` showed an MIC90 of 2 µg/mL (≈ 4.89 µM).
Compound `COC1(C)CN(c2c(F)cc(N3C[C@H](CNC(C)=O)OC3=O)cc2F)C1` yielded an MIC90 of 4 µg/mL (≈ 10.8 µM).
Regarding `CCC1(O)CN(c2c(F)cc(N3C[C@H](CNC(C)=O)OC3=O)cc2F)C1`, the MIC90 is 2 µg/mL (≈ 5.41 µM).
On the same count and under the same terms, under `CC(=O)NC[C@H]1CN(c2cc(F)c(N3CCC(C)(CC#N)CC3)c(F)c2)C(=O)O1` stands 1 µg/mL (≈ 2.46 µM); under `CC(=O)NC[C@H]1CN(c2cc(F)c(N3CCC(O)CC3)c(F)c2)C(=O)O1`, 2 µg/mL (≈ 5.41 µM).
`CC(=O)NC[C@H]1CN(c2cc(F)c(N3CC(F)C3)c(F)c2)C(=O)O1` displayed an MIC90 of 2 µg/mL (≈ 5.83 µM).
The same measure, in the same setting: under `CCC1(O)CCN(c2c(F)cc(N3C[C@H](CNC(C)=O)OC3=O)cc2F)CC1` stands 2 µg/mL (≈ 5.03 µM).
Same read-out and setting: under `CC(=O)NC[C@H]1CN(c2ccc(N3CCOCC3)c(F)c2)C(=O)O1` [LINEZOLID] stands 4 µg/mL (≈ 11.9 µM); under `COC1CN(c2c(F)cc(N3C[C@H](CNC(C)=O)OC3=O)cc2F)C1`, 2 µg/mL (≈ 5.63 µM).
For the compound `CC(=O)NC[C@H]1CN(c2cc(F)c(N3CC(C)(F)C3)c(F)c2)C(=O)O1`, the MIC90 worked out at 2 µg/mL (≈ 5.6 µM).
Still for that read-out and setting: to `CC(=O)NC[C@H]1CN(c2cc(F)c(N3CC(C)(O)C3)c(F)c2)C(=O)O1` belongs 4 µg/mL (≈ 11.3 µM); to `CC(=O)NC[C@H]1CN(c2cc(F)c(N3CC(O)C3)c(F)c2)C(=O)O1`, 2 µg/mL (≈ 5.86 µM).

What is called IC50 is the concentration that inhibits the measured activity by half. Read a high IC50 as lower potency. What is called MIC90 is an inhibitory concentration at the 90% level, which refers to growth in some studies and to a panel of isolates in others. High values mean weaker potency, low ones greater potency.

For the origin of these results see ChEMBL document CHEMBL1146253, “A distal methyl substituent attenuates mitochondrial protein synthesis inhibition in oxazolidinone antibacterials” (Bioorg Med Chem Lett, 2007).
